# Results taken from patent US12268674B2, “Mi-2β inhibitor as an immunotherapy agent” (BioVentures, LLC, priority 2021, dated 2025).
# Experiments:
# Type in all cases: binding
# GATB = target: T1, GATB (Homo sapiens, UniProt O75879); assay: ATPase profile (ATP acyl phosphate probe)
# T1 construct: endogenous in cells; host or cells: A375 cell lysate
# PCCA = target: T2, PCCA (Homo sapiens, UniProt P05165); assay: ATPase profile (ATP acyl phosphate probe)
# T2 construct: to get the native cell lysate; endogenous in cells; host or cells: A375
# SMC3 = target: T3, SMC3 (Homo sapiens, UniProt Q9UQE7); assay: ATPase profile (ATP acyl phosphate probe); details: SMC3, SEQ ID NO: 194, ATP BS
# T3 construct: to get the native cell lysate; endogenous in cells; host or cells: A375 cell lysate
# MYO1E = target: T4, MYO1E (Homo sapiens, UniProt Q12965); assay: ATPase profile (ATP acyl phosphate probe); details: SEQ ID NO: 128, ATP BS
# T4 construct: to get the native cell lysate; endogenous in cells; host or cells: A375
# PDE12 = target: T5, PDE12 (Homo sapiens, UniProt Q6L8Q7); assay: ATPase profile (ATP acyl phosphate probe); details: PDE12, SEQ ID NO: 155, ATP BS
# T5 construct: to get the native cell lysate; endogenous in cells; host or cells: A375 cell lysate
# ABCD3 = target: T6, ABCD3 (Homo sapiens, UniProt P28288); assay: ATPase profile (ATP acyl phosphate probe); details: ABCD3, SEQ ID NO: 13, ATP BS
# T6 construct: to get the native cell lysate; host or cells: A375 cell lysate
# SLC25A24 = target: T7, SLC25A24 (Homo sapiens, UniProt Q6NUK1); assay: ATPase profile (ATP acyl phosphate probe); details: SLC25A24, SEQ ID NO: 192, ATP BS
# T7 construct: to get the native cell lysate; endogenous in cells; host or cells: A375 cell lysate
# CCT8 = target: T8, CCT8 (Homo sapiens, UniProt P50990); assay: ATPase profile (ATP acyl phosphate probe); details: CCT8, SEQ ID NO: 56, ATP BS
# T8 construct: to get the native cell lysate; host or cells: A375 cell lysate
# [1] = system: panel of 233 diverse ATPases; assay: ATP acyl phosphate probe assay, ATPase profile in native A375 cell lysates; details: 1 μM
# HSPA8 = target: T9, HSPA8 (Homo sapiens, UniProt P11142); assay: ATPase profile (ATP acyl phosphate probe)
# T9 construct: to get the native cell lysate; endogenous in cells; host or cells: A375
# PRKAG2 = PRKAG2 (Homo sapiens, UniProt Q9UGJ0); assay: ATPase profile (ATP acyl phosphate probe); details: PRKAG2, SEQ ID NO: 170, ATP BS
# HSPA2 = target: T10, HSPA2 (Homo sapiens, UniProt P54652); assay: ATPase profile (ATP acyl phosphate probe)
# T10 construct: to get the native cell lysate; endogenous in cells; host or cells: A375
# NME1, NME2 = assay: ATPase profile (ATP acyl phosphate probe); details: NME1, NME2, SEQ ID NO: 133, ATP BS
# TK2 = target: T11, TK2 (Homo sapiens, UniProt O00142); assay: ATPase profile (ATP acyl phosphate probe); details: TK2, SEQ ID NO: 201, ATP BS
# T11 construct: to get the native cell lysate; endogenous in cells; host or cells: A375 cell lysate
# TOR2A, TOR2X = assay: ATPase profile (ATP acyl phosphate probe); details: SEQ ID NO: 205, ATP BS
# PSMD9 = PSMD9 (Homo sapiens, UniProt O00233); assay: ATPase profile (ATP acyl phosphate probe); details: PSMD9, SEQ ID NO: 179, ATP BS; read-out: Inhibition (%) by 1 μM Z36-MP5
# GARS = target: T12, GARS (Homo sapiens, UniProt P41250); assay: ATPase profile (ATP acyl phosphate probe); details: SEQ ID NO: 79, ATP BS
# T12 construct: endogenous in cells; host or cells: A375 cell lysate
# BAT1 = target: T13, BAT1 (Homo sapiens, UniProt Q13838); assay: ATPase profile (ATP acyl phosphate probe); details: BAT1, SEQ ID NO: 49, ATP BS
# T13 construct: to get the native cell lysate; host or cells: A375 cell lysate
# MTHFD1 = target: T14, MTHFD1 (Homo sapiens, UniProt P11586); assay: ATPase profile (ATP acyl phosphate probe); details: MTHFD1, SEQ ID NO: 125, ATP BS
# T14 construct: to get the native cell lysate; endogenous in cells; host or cells: A375
# RAD17 = target: T15, RAD17 (Homo sapiens, UniProt O75943); assay: ATPase profile (ATP acyl phosphate probe); details: RAD17, SEQ ID NO: 181, ATP BS
# T15 construct: to get the native cell lysate; endogenous in cells; host or cells: A375 cell lysate
# ASNA1 = target: T16, ASNA1 (Homo sapiens, UniProt O43681); assay: ATPase profile (ATP acyl phosphate probe)
# T16 construct: to get the native cell lysate; host or cells: A375 cell lysate
# NOP2 = target: T17, NOP2 (Homo sapiens, UniProt P46087); assay: ATPase profile (ATP acyl phosphate probe); details: NOP2, SEQ ID NO: 136, ATP BS
# T17 construct: to get the native cell lysate; endogenous in cells; host or cells: A375
# ABCF1 = target: T18, ABCF1 (Homo sapiens, UniProt Q8NE71); assay: ATPase profile (ATP acyl phosphate probe); details: ABCF1, SEQ ID NO: 16, ATP BS
# T18 construct: to get the native cell lysate; host or cells: A375 cell lysate
# NUDT2 = target: T19, NUDT2 (Homo sapiens, UniProt P50583); assay: ATPase profile (ATP acyl phosphate probe)
# T19 construct: to get the native cell lysate; endogenous in cells; host or cells: A375
# POLR3A = POLR3A (Homo sapiens, UniProt O14802); assay: ATPase profile (ATP acyl phosphate probe); details: SEQ ID NO: 164, ATP BS
# AK1 = target: T20, AK1 (Homo sapiens, UniProt P00568); assay: ATPase profile (ATP acyl phosphate probe)
# T20 construct: to get the native cell lysate; host or cells: A375 cell lysate
# DHX36 = target: T21, DHX36 (Homo sapiens, UniProt Q9H2U1); assay: ATPase profile (ATP acyl phosphate probe); details: DHX36, SEQ ID NO: 73, ATP BS
# T21 construct: endogenous in cells; host or cells: A375 cell lysate
# NVL = target: T22, NVL (Homo sapiens, UniProt O15381); assay: ATPase profile (ATP acyl phosphate probe)
# T22 construct: to get the native cell lysate; endogenous in cells; host or cells: A375
# ACTR2 = target: T23, ACTR2 (Homo sapiens, UniProt P61160); assay: ATPase profile (ATP acyl phosphate probe)
# T23 construct: to get the native cell lysate; host or cells: A375 cell lysate
# TCP1 = target: T24, TCP1 (Homo sapiens, UniProt P17987); assay: ATPase profile (ATP acyl phosphate probe); details: TCP1, SEQ ID NO: 200, ATP BS
# T24 construct: to get the native cell lysate; endogenous in cells; host or cells: A375 cell lysate
# T10 sequence (P54652 whole entry): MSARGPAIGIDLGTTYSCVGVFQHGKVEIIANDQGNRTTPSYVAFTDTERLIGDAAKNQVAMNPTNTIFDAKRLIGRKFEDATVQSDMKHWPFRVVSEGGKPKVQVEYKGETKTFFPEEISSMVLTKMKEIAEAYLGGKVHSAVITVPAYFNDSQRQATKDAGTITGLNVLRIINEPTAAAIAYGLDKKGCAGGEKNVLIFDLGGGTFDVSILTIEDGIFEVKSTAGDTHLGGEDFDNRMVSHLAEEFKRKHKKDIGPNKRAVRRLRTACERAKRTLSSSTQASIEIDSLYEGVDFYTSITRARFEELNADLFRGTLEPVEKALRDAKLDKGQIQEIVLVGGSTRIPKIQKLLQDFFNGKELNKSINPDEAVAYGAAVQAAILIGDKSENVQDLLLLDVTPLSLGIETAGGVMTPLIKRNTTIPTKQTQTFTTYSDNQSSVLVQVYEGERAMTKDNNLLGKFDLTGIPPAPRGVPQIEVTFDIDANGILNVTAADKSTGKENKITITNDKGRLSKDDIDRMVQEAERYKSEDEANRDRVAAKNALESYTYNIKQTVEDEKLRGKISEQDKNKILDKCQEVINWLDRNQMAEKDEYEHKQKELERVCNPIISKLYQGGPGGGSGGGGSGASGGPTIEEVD
# T20 sequence (P00568 whole entry): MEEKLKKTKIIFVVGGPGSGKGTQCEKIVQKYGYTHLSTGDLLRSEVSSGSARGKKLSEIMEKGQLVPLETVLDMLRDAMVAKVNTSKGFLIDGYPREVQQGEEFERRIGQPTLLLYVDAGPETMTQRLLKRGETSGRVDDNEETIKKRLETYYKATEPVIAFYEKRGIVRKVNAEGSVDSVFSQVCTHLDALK
# T16 sequence (O43681 whole entry): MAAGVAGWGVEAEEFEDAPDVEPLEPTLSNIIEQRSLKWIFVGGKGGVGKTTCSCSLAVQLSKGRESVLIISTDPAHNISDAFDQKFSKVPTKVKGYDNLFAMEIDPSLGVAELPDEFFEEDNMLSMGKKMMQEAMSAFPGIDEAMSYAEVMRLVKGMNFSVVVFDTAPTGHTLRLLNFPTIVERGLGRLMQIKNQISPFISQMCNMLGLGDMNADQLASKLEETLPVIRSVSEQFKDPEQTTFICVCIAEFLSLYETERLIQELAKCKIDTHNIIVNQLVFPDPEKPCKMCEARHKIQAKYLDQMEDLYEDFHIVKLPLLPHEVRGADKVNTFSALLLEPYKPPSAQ
# T19 sequence (P50583 whole entry): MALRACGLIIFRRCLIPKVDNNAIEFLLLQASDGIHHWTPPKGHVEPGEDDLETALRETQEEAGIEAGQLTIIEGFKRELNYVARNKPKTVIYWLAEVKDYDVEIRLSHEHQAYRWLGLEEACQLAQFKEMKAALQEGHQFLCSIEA
# T22 sequence (O15381 whole entry): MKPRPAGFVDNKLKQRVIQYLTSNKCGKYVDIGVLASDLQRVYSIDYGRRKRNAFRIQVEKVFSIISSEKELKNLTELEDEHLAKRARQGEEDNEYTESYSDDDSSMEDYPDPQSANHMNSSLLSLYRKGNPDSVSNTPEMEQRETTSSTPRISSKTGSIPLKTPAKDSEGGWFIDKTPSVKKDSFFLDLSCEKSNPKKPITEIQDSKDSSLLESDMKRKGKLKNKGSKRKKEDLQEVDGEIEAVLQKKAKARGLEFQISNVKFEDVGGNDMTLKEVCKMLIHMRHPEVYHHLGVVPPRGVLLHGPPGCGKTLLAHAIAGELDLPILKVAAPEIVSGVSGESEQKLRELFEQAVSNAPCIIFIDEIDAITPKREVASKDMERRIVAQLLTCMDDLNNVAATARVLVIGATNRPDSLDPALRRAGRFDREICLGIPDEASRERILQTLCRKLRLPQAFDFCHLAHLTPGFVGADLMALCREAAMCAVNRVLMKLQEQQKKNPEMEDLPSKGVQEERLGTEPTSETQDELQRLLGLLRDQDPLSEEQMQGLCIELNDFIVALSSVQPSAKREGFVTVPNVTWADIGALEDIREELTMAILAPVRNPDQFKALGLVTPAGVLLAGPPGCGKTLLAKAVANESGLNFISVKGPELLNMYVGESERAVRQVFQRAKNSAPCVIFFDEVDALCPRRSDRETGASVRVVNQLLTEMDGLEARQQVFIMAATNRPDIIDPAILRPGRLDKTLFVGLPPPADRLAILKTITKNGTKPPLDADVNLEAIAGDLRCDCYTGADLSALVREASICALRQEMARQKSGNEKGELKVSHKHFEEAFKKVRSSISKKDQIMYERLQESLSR
# T1 sequence (O75879 31-557): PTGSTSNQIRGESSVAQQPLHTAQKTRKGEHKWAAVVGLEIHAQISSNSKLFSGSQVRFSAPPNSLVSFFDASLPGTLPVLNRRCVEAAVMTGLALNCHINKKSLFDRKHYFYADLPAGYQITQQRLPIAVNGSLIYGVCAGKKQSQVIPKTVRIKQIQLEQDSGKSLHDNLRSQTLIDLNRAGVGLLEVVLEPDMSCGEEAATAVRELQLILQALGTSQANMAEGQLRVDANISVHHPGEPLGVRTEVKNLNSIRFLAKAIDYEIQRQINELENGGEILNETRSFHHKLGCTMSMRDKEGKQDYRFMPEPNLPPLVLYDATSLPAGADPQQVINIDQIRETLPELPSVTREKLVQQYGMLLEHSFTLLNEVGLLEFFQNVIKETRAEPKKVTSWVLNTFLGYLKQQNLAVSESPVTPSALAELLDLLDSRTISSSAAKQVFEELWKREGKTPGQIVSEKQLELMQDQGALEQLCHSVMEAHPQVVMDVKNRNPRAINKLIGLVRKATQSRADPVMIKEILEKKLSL
# T1 sequence (Q9H0R6 whole entry partner): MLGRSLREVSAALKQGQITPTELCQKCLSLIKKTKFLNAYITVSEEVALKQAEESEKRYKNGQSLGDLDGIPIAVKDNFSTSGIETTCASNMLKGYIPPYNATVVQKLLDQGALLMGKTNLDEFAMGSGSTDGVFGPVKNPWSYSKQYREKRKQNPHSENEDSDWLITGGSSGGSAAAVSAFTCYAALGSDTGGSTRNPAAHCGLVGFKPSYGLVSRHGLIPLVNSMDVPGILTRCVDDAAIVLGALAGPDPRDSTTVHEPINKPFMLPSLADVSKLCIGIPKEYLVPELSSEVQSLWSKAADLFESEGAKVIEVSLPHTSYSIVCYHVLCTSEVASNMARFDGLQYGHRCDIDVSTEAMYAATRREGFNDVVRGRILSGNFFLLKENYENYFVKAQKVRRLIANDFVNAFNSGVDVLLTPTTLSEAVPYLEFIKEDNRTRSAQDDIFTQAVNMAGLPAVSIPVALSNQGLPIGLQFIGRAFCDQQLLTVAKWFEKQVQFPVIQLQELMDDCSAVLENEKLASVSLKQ
# T1 sequence (O43716 58-136 partner): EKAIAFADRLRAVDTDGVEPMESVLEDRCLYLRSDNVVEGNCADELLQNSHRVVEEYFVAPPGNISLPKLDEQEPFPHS
# T2 sequence (P05165 53-728): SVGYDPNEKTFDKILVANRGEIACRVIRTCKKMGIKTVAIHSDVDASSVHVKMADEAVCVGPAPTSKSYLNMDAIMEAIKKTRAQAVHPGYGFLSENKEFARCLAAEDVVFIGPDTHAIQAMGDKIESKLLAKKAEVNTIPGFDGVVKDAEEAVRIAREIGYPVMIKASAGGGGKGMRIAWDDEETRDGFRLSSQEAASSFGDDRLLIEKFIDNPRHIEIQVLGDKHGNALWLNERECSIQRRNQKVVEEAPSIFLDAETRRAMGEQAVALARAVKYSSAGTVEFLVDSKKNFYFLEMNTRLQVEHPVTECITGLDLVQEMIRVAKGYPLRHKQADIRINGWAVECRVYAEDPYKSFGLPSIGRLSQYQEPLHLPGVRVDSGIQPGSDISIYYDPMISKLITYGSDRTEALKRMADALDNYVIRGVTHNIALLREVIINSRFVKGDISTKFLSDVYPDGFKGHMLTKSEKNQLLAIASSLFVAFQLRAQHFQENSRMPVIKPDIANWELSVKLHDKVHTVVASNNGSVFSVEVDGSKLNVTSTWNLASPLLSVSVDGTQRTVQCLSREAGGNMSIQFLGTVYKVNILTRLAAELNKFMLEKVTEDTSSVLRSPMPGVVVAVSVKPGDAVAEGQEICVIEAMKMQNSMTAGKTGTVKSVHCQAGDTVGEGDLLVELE
# T2 sequence (P05166 29-539 partner): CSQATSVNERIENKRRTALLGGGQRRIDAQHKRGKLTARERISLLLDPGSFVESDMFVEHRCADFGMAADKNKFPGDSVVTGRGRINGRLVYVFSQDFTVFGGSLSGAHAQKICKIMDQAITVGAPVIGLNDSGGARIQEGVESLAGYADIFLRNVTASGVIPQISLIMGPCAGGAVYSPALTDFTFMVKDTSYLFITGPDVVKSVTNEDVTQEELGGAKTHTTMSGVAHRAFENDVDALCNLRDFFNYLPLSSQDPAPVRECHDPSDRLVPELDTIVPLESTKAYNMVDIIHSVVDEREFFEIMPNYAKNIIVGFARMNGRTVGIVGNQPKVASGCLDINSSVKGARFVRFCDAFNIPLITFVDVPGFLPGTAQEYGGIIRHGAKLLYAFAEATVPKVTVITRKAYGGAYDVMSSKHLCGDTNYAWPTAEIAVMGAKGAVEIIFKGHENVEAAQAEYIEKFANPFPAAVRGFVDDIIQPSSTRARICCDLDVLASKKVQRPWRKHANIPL
# T13 sequence (Q13838 whole entry): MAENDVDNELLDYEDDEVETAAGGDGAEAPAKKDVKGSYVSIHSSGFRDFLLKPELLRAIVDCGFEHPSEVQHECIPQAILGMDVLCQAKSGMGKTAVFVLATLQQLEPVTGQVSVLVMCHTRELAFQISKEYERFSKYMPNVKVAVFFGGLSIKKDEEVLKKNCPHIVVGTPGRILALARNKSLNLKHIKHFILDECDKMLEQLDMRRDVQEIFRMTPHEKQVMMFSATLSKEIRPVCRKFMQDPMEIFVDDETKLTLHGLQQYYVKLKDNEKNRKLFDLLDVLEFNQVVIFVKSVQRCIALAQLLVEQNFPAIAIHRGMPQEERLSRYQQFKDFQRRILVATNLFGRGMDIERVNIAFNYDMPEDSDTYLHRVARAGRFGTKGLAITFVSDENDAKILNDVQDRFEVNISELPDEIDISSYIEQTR
smiles,measurement,setting,value
"Cn1c(=O)[nH]c2ccc(-c3cccc(C(=O)NC4CCn5ccnc5C4)c3)cc21 (stereo not drawn) [Z36-MP5, 3-(3-methyl-2-oxo-2,3-dihydro-1H-benzo[d]imidazol-5-yl)-N-(5,6,7,8-tetrahydroimidazo[1,2-a]pyridin-7-yl)benzamide]",Inhibition (%) by 1 μM Z36-MP5,"GATB; SEQ ID NO: 83, ATP BS",−15.35%
same,Inhibition (%) by 1 μM Z36-MP5,"GATB; SEQ ID NO: 84, ATP BS",−4.32%
same,Inhibition (%) by 1 μM Z36-MP5,"PCCA; SEQ ID NO: 153, ATP BS",−5.50%
same,Inhibition (%) by 1 μM Z36-MP5,"PCCA; SEQ ID NO: 154, ATP BS",−10.70%
same,Inhibition (%) by 1 μM Z36-MP5,SMC3,−10.19%
same,Inhibition (%) by 1 μM Z36-MP5,MYO1E,4.66%
same,Inhibition (%) by 1 μM Z36-MP5,PDE12,−5.87%
same,Inhibition (%) by 1 μM Z36-MP5,ABCD3,3.07%
same,Inhibition (%) by 1 μM Z36-MP5,SLC25A24,11.88%
same,Inhibition (%) by 1 μM Z36-MP5,CCT8,9.18%
same,inhibition against a panel of 233 diverse ATPases,[1],less than 35%
same,Inhibition (%) by 1 μM Z36-MP5,"HSPA8; HSPA8, SEQ ID NO: 106, ATP BS",3.27%
same,Inhibition (%) by 1 μM Z36-MP5,"HSPA8; HSPA8, SEQ ID NO: 107, ATP BS",4.45%
same,Inhibition (%) by 1 μM Z36-MP5,PRKAG2,−22.54%
same,Inhibition (%) by 1 μM Z36-MP5,"HSPA2; HSPA2, SEQ ID NO: 102, ATP BS",−1.50%
same,Inhibition (%) by 1 μM Z36-MP5,"HSPA2; HSPA2, SEQ ID NO: 103, ATP BS",−5.18%
same,Inhibition (%) by 1 μM Z36-MP5,"NME1, NME2",−1.52%
same,Inhibition (%) by 1 μM Z36-MP5,TK2,14.43%
same,Inhibition (%) by 1 μM Z36-MP5,"TOR2A, TOR2X",0.38%
same,inhibition at 1 µM,PSMD9,2.13%
same,Inhibition (%) by 1 μM Z36-MP5,GARS,16.66%
same,Inhibition (%) by 1 μM Z36-MP5,BAT1,−9.58%
same,Inhibition (%) by 1 μM Z36-MP5,MTHFD1,−6.16%
same,Inhibition (%) by 1 μM Z36-MP5,RAD17,15.62%
same,Inhibition (%) by 1 μM Z36-MP5,"ASNA1; ASNA1, SEQ ID NO: 41, ATP BS",−3.04%
same,Inhibition (%) by 1 μM Z36-MP5,"ASNA1; ASNA1, SEQ ID NO: 42, ATP BS",0.73%
same,Inhibition (%) by 1 μM Z36-MP5,NOP2,1.98%
same,Inhibition (%) by 1 μM Z36-MP5,ABCF1,−8.08%
same,Inhibition (%) by 1 μM Z36-MP5,"NUDT2; NUDT2, SEQ ID NO: 145, ATP BS",19.18%
same,Inhibition (%) by 1 μM Z36-MP5,"NUDT2; NUDT2, SEQ ID NO: 146, ATP BS",11.64%
same,Inhibition (%) by 1 μM Z36-MP5,POLR3A,4.31%
same,Inhibition (%) by 1 μM Z36-MP5,"AK1; AK1, SEQ ID NO: 31, ATP BS",−7.19%
same,Inhibition (%) by 1 μM Z36-MP5,"AK1; AK1, SEQ ID NO: 32, ATP BS",−9.87%
same,Inhibition (%) by 1 μM Z36-MP5,DHX36,−20.12%
same,Inhibition (%) by 1 μM Z36-MP5,"NVL; SEQ ID NO: 148, ATP BS",−1.13%
same,Inhibition (%) by 1 μM Z36-MP5,"NVL; SEQ ID NO: 149, ATP BS",−8.26%
same,Inhibition (%) by 1 μM Z36-MP5,"ACTR2; ACTR2, SEQ ID NO: 25, ATP BS",−16.82%
same,Inhibition (%) by 1 μM Z36-MP5,"ACTR2; ACTR2, SEQ ID NO: 26, ATP BS",−2.20%
same,Inhibition (%) by 1 μM Z36-MP5,TCP1,6.76%
